Measured values taken from publication PMC4076210, “Discovery of Novel AKT Inhibitors with Enhanced Anti-Tumor Effects in Combination with the MEK Inhibitor” (PLoS ONE, 2014).

Test system: hematological tumor cell lines
Test: 3-day proliferation assay (CellTiter-Glo)
Format: cell-based, human
Conditions: for IC50: Homo sapiens
Protocol: Various tumor cell lines were obtained from different sources including; the American Type Cell Culture Collection, the Developmental Therapeutics Program, the National Cancer Institute, the German Resource Center for Biological Material and the European Collection of Animal Cell Cultures. Cell lines were typically grown in […] containing 10% FBS. Some cell lines were grown in media specified by the vendor. A 3-day proliferation assay using CellTiter-Glo (CTG, Promega) was performed to measure the growth inhibition by the compounds at 0–30 µM. Cell growth was determined relative to untreated (DMSO) controls. EC50's were calculated from inhibition curves using a 4- or 6-parameter fitting algorithm in the Assay Client application.

SMILES: Cn1ncc(Cl)c1-c1cc(C(=O)N[C@H](CN)Cc2cccc(F)c2)sc1Cl [GSK2110183]
- hematological cell lines sensitive (EC50<1 µM) (112 cell lines, 3 days, CTG): 65%
- IC50 (1A2, 1A2 cell line, Burkitt's Lymphoma, B Cell): 104 nM
- IC50 (697 cell line, ALL, pre-B Cell): 737 nM
- IC50 (ARH-77, ARH77 cell line, Multiple Myeloma, B Cell): 313 nM
- IC50 (B-cell, BDCM cell line, AML, B Cell): 26 nM
- IC50 (B-cell, CESS cell line, AML, B Cell): 475 nM
- IC50 (B-cell, HKB-11 cell line, Burkitt's Lymphoma, B Cell): 167 nM
- IC50 (B-cell, HS-Sultan cell line, Burkitt's Lymphoma, B Cell): 649 nM
- IC50 (B-cell, KARPAS-231 cell line, ALL, B Cell): 119 nM
- IC50 (B-cell, MN60 cell line, ALL, B Cell): 1930 nM
- IC50 (B-cell, Namalwa cell line, Burkitt's Lymphoma, B Cell): 908 nM
- IC50 (B-cell, SD-1 cell line, ALL, B Cell): 10 nM
- IC50 (B-cell, Tanoue cell line, ALL, B Cell): 1040 nM
- IC50 (BC1, BC1 cell line, Burkitt's Lymphoma, B Cell): 2100 nM
- IC50 (BC-3, BC3 cell line, Burkitt's Lymphoma, B Cell): 16300 nM
- IC50 (BV-173, BV173 cell line, CML, pre-B Cell): 1210 nM
- IC50 (CA46, CA46 cell line, Burkitt's Lymphoma, B Cell): 2320 nM
- IC50 (CCRF-CEM, CCRFCEM cell line, ALL, T Cell): 369 nM
- IC50 (CCRF-SB, CCRFSB cell line, ALL, B Cell): 56 nM
- IC50 (CEM/C1, CEM/C1 cell line, ALL, T Cell): 109 nM
- IC50 (CEM/C2, CEM/C2 cell line, ALL, T Cell): 48 nM
- IC50 (CML-T1, CML-T1 cell line, CML, T Cell): 5080 nM
- IC50 (CRO-AP5, CRO-AP5 cell line, Primary Effusion Lymphoma (PEL), B Cell): 67 nM
- IC50 (DB, DB cell line, Non-Hodgkin's Lymphoma, B Cell): 6320 nM
- IC50 (DG-75, DG75 cell line, Burkitt's Lymphoma, B Cell): 14900 nM
- IC50 (DOHH-2, DOHH-2 cell line, Non-Hodgkin's Lymphoma, B Cell): 38 nM
- IC50 (Daudi, DAUDI cell line, Burkitt's Lymphoma, B Cell): 441 nM
- IC50 (EB1, EB1 cell line, Burkitt's Lymphoma, B Cell): 110 nM
- IC50 (EB2, EB2 cell line, Burkitt's Lymphoma, B Cell): 631 nM
- IC50 (EB-3, EB3 cell line, Burkitt's Lymphoma, B Cell): 2970 nM
- IC50 (EM-2, EM2 cell line, CML, Unspecified): 1220 nM
- IC50 (GA-10, GA-10 cell line, Burkitt's Lymphoma, B Cell): 237 nM
- IC50 (GDM-1, GDM-1 cell line, AML, Monoblast): 2820 nM
- IC50 (HD-MY-Z cell line, Hodgkin's Lymphoma, Unspecified): 9120 nM
- IC50 (HEL 92.1.7, HEL92.1.7 cell line, AML, Erythroleukemia): 14100 nM
- IC50 (HH, HH cell line, Non-Hodgkin's Lymphoma (CTCL), T Cell): 301 nM
- IC50 (HL-60, HL-60 cell line, AML, Myeloblast): 2580 nM
- IC50 (HSB2, HSB2 cell line, ALL, T Cell): 5350 nM
- IC50 (HT, HT cell line, Burkitt's Lymphoma, B Cell): 206 nM
- IC50 (HuT78, HuT78 cell line, Non-Hodgkin's Lymphoma (CTCL), T Cell): 544 nM
- IC50 (J.gamma1, J.Gamma-1 cell line, ALL, T Cell): 57 nM
- IC50 (JIYOYE, JIYOYE cell line, Burkitt's Lymphoma, B Cell): 1850 nM
- IC50 (JM1, JM1 cell line, Burkitt's Lymphoma, pre-B Cell): 759 nM
- IC50 (Jurkat, Jurkat cell line, ALL, T Cell): 28 nM
- IC50 (K562, K562 cell line, CML, Lymphoblast): 4450 nM
- IC50 (KG-1, KG-1 cell line, AML, B Cell): 61 nM
- IC50 (KU812, Ku812 cell line, CML, Basophilic Leukocyte): 187 nM
- IC50 (Kasumi 1, Kasumi-1 cell line, AML, Myeloblast): 131 nM
- IC50 (Kasumi-2 cell line, AML, Myeloblast): 996 nM
- IC50 (L-428, L428 cell line, Hodgkin's Lymphoma, Unspecified): 1.35 nM
- IC50 (MC116, MC116 cell line, Burkitt's Lymphoma, B Cell): 1080 nM
- IC50 (MEG-01, MEG01 cell line, CML, Megakaryoblastic): 6140 nM
- IC50 (MHH-CALL-3 cell line, ALL, pre-B Cell): 1220 nM
- IC50 (MHH-PREB-1, MHH-PREB-1 cell line, Non-Hodgkin's Lymphoma, B Cell): 1920 nM
- IC50 (ML-2, ML-2 cell line, AML, Myelomonocytic): 981 nM
- IC50 (MOLT-3, MOLT3 cell line, ALL, T Cell): 62 nM
- IC50 (MOLT-4, Molt-4 cell line, ALL, T Cell): 14 nM
- IC50 (MOLT-16, MOLT16 cell line, ALL, T Cell): 481 nM
- IC50 (MV4-11, MV-4-11 cell line, AML, Myelomonocytic): 1270 nM
- IC50 (NALM-6, Nalm-6 cell line, ALL, pre-B Cell): 352 nM
- IC50 (NC-37, NC-37 cell line, Burkitt's Lymphoma, B Cell): 1780 nM
- IC50 (NOMO-1, Nomo-1 cell line, AML, B Cell): 104 nM
- IC50 (NU-DHL-1, NU-DHL-1 cell line, Burkitt's Lymphoma, B Cell): 64 nM
- IC50 (OCI-AML2, OCI-AML-2 cell line, AML, B Cell): 10300 nM
- IC50 (OCI-AML-3, OCI-AML-3 cell line, AML, B Cell): 113 nM
- IC50 (OCI-M1, OCI-M1 cell line, AML, B Cell): 1130 nM
- IC50 (P3HR-1, P3HR-1 cell line, Burkitt's Lymphoma, B Cell): 69 nM
- IC50 (PLB-985, PLB985 cell line, AML, B Cell): 2990 nM
- IC50 (Pfeiffer, Pfeiffer cell line, Non-Hodgkin's Lymphoma, B Cell): 13 nM
- IC50 (RCH-ACV cell line, ALL, pre-B Cell): 668 nM
- IC50 (RCK8, RC-K8 cell line, Non-Hodgkin's Lymphoma (Histiocytic), B Cell): 5390 nM
- IC50 (REH, Reh cell line, ALL, pre-B Cell): 292 nM
- IC50 (RL, RL cell line, Non-Hodgkin's Lymphoma, B Cell): 225 nM
- IC50 (RPMI-6666, RPMI 6666 cell line, Hodgkin's Lymphoma, Lymphoblast): 135 nM
- IC50 (RS4-11, RS4;11 cell line, ALL, B Cell): 539 nM
- IC50 (Raji, Raji cell line, Burkitt's Lymphoma, B Cell): 6590 nM
- IC50 (Rec1, REC-1 cell line, Non-Hodgkin's Lymphoma, B Cell): 3690 nM
- IC50 (SC-1, SC1 cell line, Burkitt's Lymphoma, B Cell): 2130 nM
- IC50 (SEM cell line, ALL, pre-B Cell): 347 nM
- IC50 (SKO-007, SKO-007 cell line, Multiple Myeloma, B Cell): 6770 nM
- IC50 (SR, SR cell line, Non-Hodgkin's Lymphoma, Lymphoblast): 2510 nM
- IC50 (ST486, ST486 cell line, Burkitt's Lymphoma, B Cell): 2450 nM
- IC50 (SU-DHL10, SU-DHL-10 cell line, Non-Hodgkin's Lymphoma, B Cell): 175 nM
- IC50 (SU-DHL-4, SU-DHL-4 cell line, Non-Hodgkin's Lymphoma, B Cell): 114 nM
- IC50 (SU-DHL-5, SU-DHL-5 cell line, Non-Hodgkin's Lymphoma, B Cell): 153 nM
- IC50 (SU-DHL-6, SU-DHL-6 cell line, Non-Hodgkin's Lymphoma, B Cell): 63 nM
- IC50 (SU-DHL-16, SU-DHL-16 cell line, Non-Hodgkin's Lymphoma, B Cell): 62 nM
- IC50 (SUP-B15, SUP B15 cell line, ALL, B Cell): 1940 nM
- IC50 (T-cell, 8E5 cell line, ALL, T Cell): 43 nM
- IC50 (T-cell, CEM/C3 cell line, ALL, T Cell): 35 nM
- IC50 (T-cell, I2.1 cell line, ALL, T Cell): 48 nM
- IC50 (T-cell, J.Cam.1.6 cell line, ALL, T Cell): 110 nM
- IC50 (T-cell, J.RT-T3.5 cell line, ALL, T Cell): 54 nM
- IC50 (T-cell, JR45.01 cell line, ALL, T Cell): 33 nM
- IC50 (T-cell, LOUCY cell line, ALL, T Cell): 63 nM
- IC50 (T-cell, MJ cell line, Non-Hodgkin's Lymphoma (CTCL), T Cell): 4730 nM
- IC50 (T-cell, SUPTI(VB) cell line, ALL, T Cell): 200 nM
- IC50 (TO 175.T, TO 175.T cell line, Hodgkin's Lymphoma, Unspecified): 8490 nM
- IC50 (Toledo, Toledo cell line, Non-Hodgkin's Lymphoma, B Cell): 1150 nM
- IC50 (U-937, U937 cell line, Non-Hodgkin's Lymphoma (Histiocytic), Monocyte): 26 nM
